Test results as given in PubChem BioAssay (NCI).
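These data come from cells grown in 96-well plates and exposed to compound for 48 hours at five concentrations. At the TGI there is no net growth.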

What was measured:
Assay in all cases: DTP human tumour cell line panel, 48 h
U251 CNS = system: U251 CNS
HCT-116 colon = system: HCT-116 colon
K-562 leukemia = system: K-562 leukemia
SNB-19 CNS = system: SNB-19 CNS
NCI-H460 lung = system: NCI-H460 lung
HCC-2998 colon = system: HCC-2998 colon
CCRF-CEM leukemia = system: CCRF-CEM leukemia
SK-MEL-28 melanoma = system: SK-MEL-28 melanoma
ACHN renal = system: ACHN renal
HOP-62 NSCLC = system: HOP-62 NSCLC
NCI-H23 lung = system: NCI-H23 lung
MALME-3M melanoma = system: MALME-3M melanoma
HL-60(TB) leukemia = system: HL-60(TB) leukemia
LOX IMVI melanoma = system: LOX IMVI melanoma
SN12C renal = system: SN12C renal
MDA-MB-231 breast = system: MDA-MB-231 breast
KM12 colon = system: KM12 colon
PC-3 prostate = system: PC-3 prostate
SK-MEL-2 melanoma = system: SK-MEL-2 melanoma
SR leukemia = system: SR leukemia
UACC-257 melanoma = system: UACC-257 melanoma
NCI-H522 lung = system: NCI-H522 lung
NCI-H226 lung = system: NCI-H226 lung
OVCAR-4 ovarian = system: OVCAR-4 ovarian
786-0 renal = system: 786-0 renal
OVCAR-3 ovarian = system: OVCAR-3 ovarian
SNB-75 CNS = system: SNB-75 CNS
SF-268 CNS = system: SF-268 CNS
MDA-N = system: MDA-N
DU-145 prostate = system: DU-145 prostate
HCT-15 colon = system: HCT-15 colon
SF-539 CNS = system: SF-539 CNS
SK-MEL-5 melanoma = system: SK-MEL-5 melanoma
MCF7 breast = system: MCF7 breast
M14 melanoma = system: M14 melanoma
UO-31 renal = system: UO-31 renal
OVCAR-5 ovarian = system: OVCAR-5 ovarian
OVCAR-8 ovarian = system: OVCAR-8 ovarian
HT29 colon = system: HT29 colon
IGROV1 ovarian = system: IGROV1 ovarian
T-47D breast = system: T-47D breast
TK-10 renal = system: TK-10 renal
MOLT-4 leukemia = system: MOLT-4 leukemia
SK-OV-3 ovarian = system: SK-OV-3 ovarian
UACC-62 melanoma = system: UACC-62 melanoma
RPMI-8226 leukemia = system: RPMI-8226 leukemia
MDA-MB-435 = system: MDA-MB-435
SW-620 colon = system: SW-620 colon
NCI/ADR-RES ovarian = system: NCI/ADR-RES ovarian
CAKI-1 renal = system: CAKI-1 renal
EKVX NSCLC = system: EKVX NSCLC

Measured: TGI

N#CCCC1(CCC#N)CCc2ccccc2C1=O
> 100 µM: all assays above
